# Laboratory results reported in patent publication US11634396B2 (priority 2021, dated 2023).
# Structures can show the parent of a compound that is named as a salt.
# Target: human mOR (Homo sapiens (Human), UniProt P35372)
# Test: cell-based
# Conditions: not given
# Chain of human mOR (P35372 whole entry): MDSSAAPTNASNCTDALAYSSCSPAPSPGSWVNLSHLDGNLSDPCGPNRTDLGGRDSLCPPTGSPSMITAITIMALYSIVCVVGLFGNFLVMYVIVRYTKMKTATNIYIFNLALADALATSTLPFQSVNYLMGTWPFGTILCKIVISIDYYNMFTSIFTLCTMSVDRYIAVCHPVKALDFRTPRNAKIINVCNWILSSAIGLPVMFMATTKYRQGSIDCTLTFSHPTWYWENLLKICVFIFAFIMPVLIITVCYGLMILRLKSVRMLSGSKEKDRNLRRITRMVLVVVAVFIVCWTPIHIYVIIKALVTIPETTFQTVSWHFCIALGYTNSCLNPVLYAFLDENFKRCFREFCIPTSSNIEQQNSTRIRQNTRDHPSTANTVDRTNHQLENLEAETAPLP
row,Structure (SMILES),IC50
1,"Cc1cc(O)cc(C)c1C[C@@H](CNC(=O)C[C@H](CC1CC1)c1cccnc1)N(C)C [Compound 241, (S)-4-cyclopropyl-N-((S)-2-(dimethylamino)-3-(4-hydroxy-2,6-dimethylphenyl)propyl)-3-(pyridin-3-yl)butanamide]",< 300 nM
2,"CNC(=O)c1ccc(C[C@@H](CNC(=O)CC(c2ccncc2)C2(C(F)(F)F)CC2)N(C)C)c(C)c1 (stereo in doubt) [Compound 130, 4-((S)-2-(dimethylamino)-3-((S)-3-(pyridin-4-yl)-3-(1-(trifluoromethyl)cyclopropyl)propanamido)propyl)-N,3-dimethylbenzamide]",< 300 nM
3,"Cc1ncc([C@@H](CC(=O)NC[C@H](Cc2ccc(C(N)=O)c(F)c2F)N(C)C)C2(C(F)(F)F)CC2)cn1 [Compound 3, 4-((S)-2-(dimethylamino)-3-((R)-3-(2-methylpyrimidin-5-yl)-3-(1-(trifluoromethyl)cyclopropyl)propanamido)propyl)-2,3-difluorobenzamide]",< 300 nM
4,"COc1ccc(C(CC(=O)NC[C@H](Cc2c(C)cc(O)cc2C)N(C)C)C2(C(F)(F)F)CC2)cn1 (stereo partly drawn) [Compound 244, N-((S)-2-(dimethylamino)-3-(4-hydroxy-2,6-dimethylphenyl)propyl)-3-(6-methoxypyridin-3-yl)-3-(1-(trifluoromethyl)cyclopropyl) propanamide]",< 300 nM
5,"CN(C)[C@H](CNC(=O)C[C@H](c1cccnc1)C1(C(F)(F)F)CC1)Cc1ccc2[nH]ncc2c1Cl [Compound 192, (R)-N-((S)-3-(4-chloro-1H-indazol-5-yl)-2-(dimethylamino)propyl)-3-(pyridin-3-yl)-3-(1-(trifluoromethyl)cyclopropyl)propanamide]",< 300 nM
6,"Cc1ncc([C@@H](CC(=O)NC[C@H](Cc2ccc(C(N)=O)c(F)c2C)N(C)C)C2CC2)cn1 [Compound 42, 4-((S)-3-((S)-3-cyclopropyl-3-(2-methylpyrimidin-S-yl)propanamido)-2-(dimethylamino)propyl)-2-fluoro-3-methylbenzamide]",> 3000 nM
7,"CN(C)[C@H](CNC(=O)CC(c1cccnc1)C1(C(F)(F)F)CC1)Cc1ccc(O)cc1 (stereo partly drawn) [Compound 291, N-((S)-2-(dimethylamino)-3-(4-hydroxyphenyl)propyl)-3-(pyridin-3-yl)-3-(1-(trifluoromethyl)cyclopropyl)propanamide]",< 300 nM
8,"Cc1ccc([C@@H](CC(=O)NC[C@H](Cc2ccc(C(N)=O)c(F)c2)N(C)C)C2(C(F)(F)F)CC2)s1 [Compound 53, 4-((S)-2-(dimethylamino)-3-((S)-3-(5-methylthiophen-2-yl)-3-(1-(trifluoromethyl)cyclopropyl)propanamido)propyl)-2-fluorobenzamide]",< 300 nM
9,"CNC(=O)c1cc(C)c(C[C@@H](CNC(=O)C[C@H](c2ccccc2)C2(C(F)(F)F)CC2)N(C)C)cc1F [Compound 144, 4-((S)-2-(dimethylamino)-3-((R)-3-phenyl-3-(1-(trifluoromethyl)cyclopropyl)propanamido)propyl)-2-fluoro-N,5-dimethylbenzamide]",> 3000 nM
10,"CN(C)[C@H](CNC(=O)C[C@H](c1ccncc1)C1CC1)Cc1c(F)cc(O)cc1F [Compound 239, (S)-3-cyclopropyl-N-((S)-3-(2,6-difluoro-4-hydroxyphenyl)-2-(dimethylamino)propyl)-3-(pyridin-4-yl)propanamide]",< 300 nM
11,"CN(C)[C@H](CNC(=O)C[C@H](c1ccncc1)C1(C(F)(F)F)CC1)Cc1ccc(O)cc1Cl [Compound 261, (R)-N-((S)-3-(2-chloro-4-hydroxyphenyl)-2-(dimethylamino)propyl)-3-(pyridin-4-yl)-3-(1-(trifluoromethyl)cyclopropyl)propanamide]",< 300 nM
12,"CC(C)C[C@H](CC(=O)NC[C@H](Cc1ccc(O)cc1)N(C)C)c1cccnc1 [Compound 297, (R)-N-((S)-2-(dimethylamino)-3-(4-hydroxyphenyl)propyl)-5-methyl-3-(pyridin-3-yl)hexanamide]",< 300 nM
13,"Cc1cc(O)ccc1C[C@@H](CNC(=O)CC(c1ccncc1)C1(C(F)(F)F)CC1)N(C)C (stereo partly drawn) [Compound 270, N-((S)-2-(dimethylamino)-3-(4-hydroxy-2-methylphenyl)propyl)-3-(pyridin-4-yl)-3-(1-(trifluoromethyl)cyclopropyl)propanamide]",< 300 nM
14,"Cc1ncc([C@@H](CC(=O)NC[C@H](Cc2c(C)cc(O)cc2C)N(C)C)C2CC2)s1 [Compound 253, (S)-3-cyclopropyl-N-((S)-2-(dimethylamino)-3-(4-hydroxy-2,6-dimethylphenyl)propyl)-3-(2-methylthiazol-5-yl)propanamide]",< 300 nM
15,"Cc1c(C[C@@H](CNC(=O)C[C@H](c2cccnc2)C2(C(F)(F)F)CC2)N(C)C)ccc2[nH]ncc12 [Compound 197, (R)-N-((S)-2-(dimethylamino)-3-(4-methyl-1H-indazol-5-yl)propyl)-3-(pyridin-3-yl)-3-(1-(trifluoromethyl)cyclopropyl)propanamide]",< 300 nM
16,"Cc1cc(O)ccc1C[C@@H](CNC(=O)CC(c1ncccn1)C1(C(F)(F)F)CC1)N(C)C (stereo partly drawn) [Compound 271, N-((S)-2-(dimethylamino)-3-(4-hydroxy-2-methylphenyl)propyl)-3-(pyrimidin-2-yl)-3-(1-(trifluoromethyl)cyclopropyl)propanamide]",< 300 nM
17,"CN(C)[C@H](CNC(=O)CC(c1ccc(C(F)(F)F)nc1)C1(C(F)(F)F)CC1)Cc1ccc(O)cc1 (stereo partly drawn) [Compound 314, N-((S)-2-(dimethylamino)-3-(4-hydroxyphenyl)propyl)-3-(1-(trifluoromethyl)cyclopropyl)-3-(6-(trifluoromethyl)pyridin-3-yl)propanamide]",< 300 nM
18,"Cc1ncc([C@@H](CC(=O)NC[C@H](Cc2ccc(C(N)=O)c(F)c2)N(C)C)C2CC2)cn1 [Compound 67, 4-((S)-3-((S)-3-cyclopropyl-3-(2-methylpyrimidin-5-yl)propanamido)-2-(dimethylamino)propyl)-2-fluorobenzamide]",> 3000 nM
19,"CNC(=O)c1ccc(C[C@@H](CNC(=O)C[C@@H](c2cncc(F)c2)C(C)(C)C)N(C)C)cc1F [Compound 151, 4-((S)-2-(dimethylamino)-3-((R)-3-(5-fluoropyridin-3-yl)-4,4-dimethylpentanamido)propyl)-2-fluoro-N-methylbenzamide]",300 to 3000 nM
20,"CN(C)[C@H](CNC(=O)C[C@H](c1ccccc1)C1(C(F)(F)F)CC1)Cc1ccc2c(c1)CC(=O)N2 [Compound 189, (R)-N-((S)-2-(dimethylamino)-3-(2-oxoindolin-5-yl)propyl)-3-phenyl-3-(1-(trifluoromethyl)cyclopropyl)propanamide]",< 300 nM

# Same assay, conditions: CHO Tag-lite human mOR stable cell line; forskolin 4 μM and DAMGO at EC90; read-out: mOR cAMP Antagonist Assay IC50
row,Structure (SMILES),IC50
1,"N[C@H](CNC(=O)C[C@H](c1cccnc1)C1(C(F)(F)F)CC1)Cc1ccc2[nH]ncc2c1 [Compound 201, (R)-N-((S)-2-amino-3-(1H-indazol-5-yl)propyl)-3-(pyridin-3-yl)-3-(1-(trifluoromethyl)cyclopropyl)propenamide dihydrochloride salt]",> 3000 nM
2,"CC(C)C[C@H](CC(=O)NC[C@H](Cc1ccc(C(N)=O)c(F)c1)N(C)C)c1cccnc1 [Compound 60, 4-((S)-2-(dimethylamino)-3-((R)-5-methyl-3-(pyridin-3-yl)hexanamido)propyl)-2-fluorobenzamide]",< 300 nM
